# From patent US20200163984A1, “USE OF ISOVALERYL SPIRAMYCIN I, II AND/OR III IN MANUFACTURING MEDICAMENT FOR TREATING AND/OR PREVENTING TUMOR, AND MEDICAMENT” (SHENYANG FUYANG PHARMACEUTICAL TECHNOLOGY CO., LTD., priority 2017, published 2020)
# Experiments:
# [1] = tested on: transplanted tumor of human non-small cell lung cancer cell A549; test: A549 transplanted tumor in nude mice; details: for Tumor Volume (mm3) (d 1): d1
# Procedure: (§1) A549 cells in a logarithmic growth phase were taken and subjected to a trypan blue exclusion experiment showing that the cell viability was more than 95%, then the cells were subjected to trypsinization, centrifugation, and supernatant removal. Then cell concentration was adjusted to 1×10^7/ml with matrigel, then each nude mouse was inoculated subcutaneously with 0.2 ml of cells at its right armpit and recorded as the first day of inoculation. When the tumor grows to be greater than or equal to 100 mm^3, the mice were randomly divided into 11 groups with 6 mice in each group: a model group, a cyclophosphamide group, isovaleryl spiramycin I groups with doses of 25, 50 and 100 mg/kg, isovaleryl spiramycin II groups with doses of 25, 50 and 100 mg/kg, and isovaleryl spiramycin III groups with doses of 25, 50 and 100 mg/kg. Each group was continuously administered intragastrically for 30 days with a dose of 20 ml/kg. The mice were sacrificed the next day after drug withdrawal and the indicators were tested. The long diameter and short diameter of the tumor, and the body weight of each mouse were recorded every 3 days from drug administration to nude mouse sacrifice.
# (§2) The body weight of the nude mice and the long diameter (a) and short diameter (b) of the transplanted tumor were measured every 3 days, and the tumor volume (v), relative tumor volume (RTV) and relative tumor proliferation rate (T/C) are calculated respectively according to the following formulas, wherein V=a×b^2/2; RTV=V/V0 (V0 is the tumor volume before administration, V is the tumor volume before sacrifice), and T/C (%)=treatment group RTV/model control group RTV×100%.
# (§3) Each mouse was weighed and sacrificed. After the tumor was completely stripped off from the body of the mouse, the non-tumor tissues such as blood stains and fat were removed to weigh the tumor and calculate the tumor growth inhibition rate. The average tumor weight of each group of mice is used as an indicator of efficacy. Tumor growth inhibition rate (%)=(1−the average tumor weight of the treatment group/the average tumor weight of the model group)×100%.
# [2] = tested on: transplanted tumor of human thyroid cancer cell TPC-1; test: TPC-1 transplanted tumor in nude mice; details: for Tumor Volume (mm3) (d30): d 30
# Procedure: as §1, with “Then” for “A549 cells in a logarithmic growth phase were taken and subjected to a trypan blue exclusion experiment showing that the cell viability was more than 95%, then the cells were subjected to trypsinization, centrifugation, and supernatant removal. Then”, “group:” for “group: a model group, a cyclophosphamide group,”
# as §2, §3
# [3] = tested on: transplanted tumor of HL60 cells; test: HL-60 transplanted tumor in nude mice; details: for Tumor Volume (mm3) (d30): d 30
# Procedure: as §1, with “HL-60” for “A549”, “group:” for “group: a model group, a cyclophosphamide group,”, “the” for “the body”
# as §2, §3
# [4] = A549, high dose (100 mg/kg in method) i.g. 30 days
# [5] = A549, low dose (25 mg/kg in method) i.g. 30 days
# [6] = A549, medium dose (50 mg/kg in method) i.g. 30 days
# [7] = TPC-1, high dose (100 mg/kg in method) i.g. 30 days
# [8] = TPC-1, low dose (25 mg/kg in method) i.g. 30 days
# [9] = TPC-1, medium dose (50 mg/kg in method) i.g. 30 days
# [10] = HL-60, high dose (100 mg/kg in method) i.g. 30 days
# [11] = HL-60, low dose (25 mg/kg in method) i.g. 30 days
# [12] = HL-60, medium dose (50 mg/kg in method) i.g. 30 days
compound,measurement,setting,value
"CCC(=O)O[C@@H]1CC(=O)O[C@H](C)C/C=C/C=C/[C@H](O[C@H]2CC[C@H](N(C)C)[C@@H](C)O2)[C@H](C)C[C@H](CC=O)[C@H](O[C@@H]2O[C@H](C)[C@@H](O[C@H]3C[C@@](C)(O)[C@@H](OC(=O)CC(C)C)[C@H](C)O3)[C@H](N(C)C)[C@H]2O)[C@H]1OC [Isovaleryl spiramycin III, isovaleryl spiramycin III]",Relative Tumor Proliferation Rate (T/C),[1]; [4],33.04%
same,tumor growth inhibition rate,[1]; [4],66.53%
same,Relative Tumor Proliferation Rate (T/C),[1]; [5],65.93%
same,tumor growth inhibition rate,[1]; [5],37.99%
same,tumor volume and relative tumor volume compared with the model group,"[1]; A549, low, medium and high doses, P<0.05",significantly lower
same,Relative Tumor Proliferation Rate (T/C),[1]; [6],47.25%
same,tumor growth inhibition rate,[1]; [6],55.95%
same,Inhibition Rate (%),"[1]; A549 nude mice, 25 mg/kg",37.99%
same,Relative Tumor Proliferation Rate (T/C),"[1]; A549 nude mice, 25 mg/kg",65.93%
same,Relative Tumor Volume (RTV),"[1]; A549 nude mice, 25 mg/kg",10.70 ± 2.64
same,Tumor Weight,"[1]; A549 nude mice, 25 mg/kg",1.49 ± 0.42 g
same,Tumor Volume (mm3) (d 1),"[1]; A549 nude mice, 25 mg/kg",113.96 ± 6.85 mm3
same,Tumor Volume (mm3) (d30),"[1]; A549 nude mice, 25 mg/kg",1216.86 ± 295.20 mm3
same,Inhibition Rate (%),"[1]; A549 nude mice, 50 mg/kg",55.95%
same,Relative Tumor Proliferation Rate (T/C),"[1]; A549 nude mice, 50 mg/kg",47.25%
same,Relative Tumor Volume (RTV),"[1]; A549 nude mice, 50 mg/kg",7.67 ± 2.86
same,Tumor Weight,"[1]; A549 nude mice, 50 mg/kg",1.06 ± 0.49 g
same,Tumor Volume (mm3) (d 1),"[1]; A549 nude mice, 50 mg/kg",113.65 ± 11.57 mm3
same,Tumor Volume (mm3) (d30),"[1]; A549 nude mice, 50 mg/kg",856.65 ± 281.96 mm3
same,Inhibition Rate (%),"[1]; A549 nude mice, 100 mg/kg",66.53%
same,Relative Tumor Proliferation Rate (T/C),"[1]; A549 nude mice, 100 mg/kg",33.04%
same,Relative Tumor Volume (RTV),"[1]; A549 nude mice, 100 mg/kg",5.36 ± 3.01
same,Tumor Weight,"[1]; A549 nude mice, 100 mg/kg",0.80 ± 0.43 g
same,Tumor Volume (mm3) (d 1),"[1]; A549 nude mice, 100 mg/kg",118.69 ± 8.13 mm3
same,Tumor Volume (mm3) (d30),"[1]; A549 nude mice, 100 mg/kg",632.73 ± 350.89 mm3
same,mouse weight compared with the model group,"[1]; mouse, in vivo",no significant changes
same,Body Weight (g) (d1),"[1]; mouse, in vivo, 25 mg/kg",21.68 ± 1.25 g
same,Body Weight (g) (d30),"[1]; mouse, in vivo, 25 mg/kg",23.97 ± 1.01 g
same,Body Weight (g) (d1),"[1]; mouse, in vivo, 50 mg/kg",21.99 ± 1.40 g
same,Body Weight (g) (d30),"[1]; mouse, in vivo, 50 mg/kg",24.36 ± 1.73 g
same,Body Weight (g) (d1),"[1]; mouse, in vivo, 100 mg/kg",20.57 ± 2.28 g
same,Body Weight (g) (d30),"[1]; mouse, in vivo, 100 mg/kg",23.53 ± 1.63 g
same,Relative Tumor Proliferation Rate (T/C),[2]; [7],34.75%
same,tumor growth inhibition rate,[2]; [7],62.94%
same,Relative Tumor Proliferation Rate (T/C),[2]; [8],61.93%
same,tumor growth inhibition rate,[2]; [8],39.06%
same,tumor volume and relative tumor volume compared with the model group,"[2]; TPC-1, low, medium and high doses, P<0.05",significantly lower
same,Relative Tumor Proliferation Rate (T/C),[2]; [9],45.01%
same,tumor growth inhibition rate,[2]; [9],60.25%
same,Inhibition Rate (%),[2]; dose 25 mg/kg,39.06%
same,Relative Tumor Proliferation Rate (T/C),[2]; dose 25 mg/kg,61.93%
same,Relative Tumor Volume (RTV),[2]; dose 25 mg/kg,10.19 ± 2.79
same,Tumor Weight,[2]; dose 25 mg/kg,1.47 ± 0.44 g
same,Tumor Volume (mm3) (d 1),[2]; dose 25 mg/kg,119.35 ± 3.84 mm3
same,Tumor Volume (mm3) (d30),[2]; dose 25 mg/kg,1210.76 ± 295.50 mm3
same,Inhibition Rate (%),[2]; dose 50 mg/kg,60.25%
same,Relative Tumor Proliferation Rate (T/C),[2]; dose 50 mg/kg,45.01%
same,Relative Tumor Volume (RTV),[2]; dose 50 mg/kg,7.41 ± 2.51
same,Tumor Weight,[2]; dose 50 mg/kg,0.96 ± 0.43 g
same,Tumor Volume (mm3) (d 1),[2]; dose 50 mg/kg,116.75 ± 5.22 mm3
same,Tumor Volume (mm3) (d30),[2]; dose 50 mg/kg,866.73 ± 306.25 mm3
same,Inhibition Rate (%),[2]; dose 100 mg/kg,62.94%
same,Relative Tumor Proliferation Rate (T/C),[2]; dose 100 mg/kg,34.75%
same,Relative Tumor Volume (RTV),[2]; dose 100 mg/kg,5.72 ± 3.04
same,Tumor Weight,[2]; dose 100 mg/kg,0.90 ± 0.44 g
same,Tumor Volume (mm3) (d 1),[2]; dose 100 mg/kg,115.43 ± 7.58 mm3
same,Tumor Volume (mm3) (d30),[2]; dose 100 mg/kg,654.78 ± 338.68 mm3
same,mouse weight compared with the model group,"[2]; mouse, in vivo",no significant changes
same,Body Weight (g) (d1),"[2]; mouse, in vivo, 25 mg/kg",21.13 ± 1.48 g
same,Body Weight (g) (d30),"[2]; mouse, in vivo, 25 mg/kg",23.49 ± 1.02 g
same,Body Weight (g) (d1),"[2]; mouse, in vivo, 50 mg/kg",21.43 ± 1.85 g
same,Body Weight (g) (d30),"[2]; mouse, in vivo, 50 mg/kg",24.06 ± 1.71 g
same,Body Weight (g) (d1),"[2]; mouse, in vivo, 100 mg/kg",20.76 ± 2.13 g
same,Body Weight (g) (d30),"[2]; mouse, in vivo, 100 mg/kg",23.72 ± 1.60 g
same,Relative Tumor Proliferation Rate (T/C),[3]; [10],39.87%
same,tumor growth inhibition rate,[3]; [10],55.05%
same,Relative Tumor Proliferation Rate (T/C),[3]; [11],76.09%
same,tumor growth inhibition rate,[3]; [11],17.10%
same,tumor volume and relative tumor volume compared with the model group,"[3]; HL-60, low, medium and high doses, P<0.05",significantly lower
same,Relative Tumor Proliferation Rate (T/C),[3]; [12],61.90%
same,tumor growth inhibition rate,[3]; [12],29.92%
same,Inhibition Rate (%),[3]; dose 25 mg/kg,17.10%
same,Relative Tumor Proliferation Rate (T/C),[3]; dose 25 mg/kg,76.09%
same,Relative Tumor Volume (RTV),[3]; dose 25 mg/kg,8.56 ± 1.82
same,Tumor Weight,[3]; dose 25 mg/kg,1.88 ± 0.25 g
same,Tumor Volume (mm3) (d 1),[3]; dose 25 mg/kg,184.12 ± 22.53 mm3
same,Tumor Volume (mm3) (d30),[3]; dose 25 mg/kg,1543.27 ± 190.73 mm3
same,Inhibition Rate (%),[3]; dose 50 mg/kg,29.92%
same,Relative Tumor Proliferation Rate (T/C),[3]; dose 50 mg/kg,61.90%
same,Relative Tumor Volume (RTV),[3]; dose 50 mg/kg,6.96 ± 2.25
same,Tumor Weight,[3]; dose 50 mg/kg,1.59 ± 0.45 g
same,Tumor Volume (mm3) (d 1),[3]; dose 50 mg/kg,189.31 ± 24.59 mm3
same,Tumor Volume (mm3) (d30),[3]; dose 50 mg/kg,1308.87 ± 436.30 mm3
same,Inhibition Rate (%),[3]; dose 100 mg/kg,55.05%
same,Relative Tumor Proliferation Rate (T/C),[3]; dose 100 mg/kg,39.87%
same,Relative Tumor Volume (RTV),[3]; dose 100 mg/kg,4.48 ± 2.94
same,Tumor Weight,[3]; dose 100 mg/kg,1.01 ± 0.41 g
same,Tumor Volume (mm3) (d 1),[3]; dose 100 mg/kg,188.01 ± 27.66 mm3
same,Tumor Volume (mm3) (d30),[3]; dose 100 mg/kg,789.65 ± 404.78 mm3
same,mouse weight compared with the model group,"[3]; mouse, in vivo",no significant changes
same,Body Weight (g) (d1),"[3]; mouse, in vivo, 25 mg/kg",20.60 ± 1.57 g
same,Body Weight (g) (d30),"[3]; mouse, in vivo, 25 mg/kg",20.67 ± 1.51 g
same,Body Weight (g) (d1),"[3]; mouse, in vivo, 50 mg/kg",20.82 ± 1.42 g
same,Body Weight (g) (d30),"[3]; mouse, in vivo, 50 mg/kg",20.59 ± 1.36 g
same,Body Weight (g) (d1),"[3]; mouse, in vivo, 100 mg/kg",20.2l ± l .87 g
same,Body Weight (g) (d30),"[3]; mouse, in vivo, 100 mg/kg",20.25 ± 1.22 g
